We go through two compounds from patent publication US20200291018A1, “TAM KINASE INHIBITORS” (SYROS PHARMACEUTICALS, INC., priority 2017, published 2020).

In one assay the target is T1, MERTK (Homo sapiens, UniProt Q12866).
T1 sequence (Q12866 21-999): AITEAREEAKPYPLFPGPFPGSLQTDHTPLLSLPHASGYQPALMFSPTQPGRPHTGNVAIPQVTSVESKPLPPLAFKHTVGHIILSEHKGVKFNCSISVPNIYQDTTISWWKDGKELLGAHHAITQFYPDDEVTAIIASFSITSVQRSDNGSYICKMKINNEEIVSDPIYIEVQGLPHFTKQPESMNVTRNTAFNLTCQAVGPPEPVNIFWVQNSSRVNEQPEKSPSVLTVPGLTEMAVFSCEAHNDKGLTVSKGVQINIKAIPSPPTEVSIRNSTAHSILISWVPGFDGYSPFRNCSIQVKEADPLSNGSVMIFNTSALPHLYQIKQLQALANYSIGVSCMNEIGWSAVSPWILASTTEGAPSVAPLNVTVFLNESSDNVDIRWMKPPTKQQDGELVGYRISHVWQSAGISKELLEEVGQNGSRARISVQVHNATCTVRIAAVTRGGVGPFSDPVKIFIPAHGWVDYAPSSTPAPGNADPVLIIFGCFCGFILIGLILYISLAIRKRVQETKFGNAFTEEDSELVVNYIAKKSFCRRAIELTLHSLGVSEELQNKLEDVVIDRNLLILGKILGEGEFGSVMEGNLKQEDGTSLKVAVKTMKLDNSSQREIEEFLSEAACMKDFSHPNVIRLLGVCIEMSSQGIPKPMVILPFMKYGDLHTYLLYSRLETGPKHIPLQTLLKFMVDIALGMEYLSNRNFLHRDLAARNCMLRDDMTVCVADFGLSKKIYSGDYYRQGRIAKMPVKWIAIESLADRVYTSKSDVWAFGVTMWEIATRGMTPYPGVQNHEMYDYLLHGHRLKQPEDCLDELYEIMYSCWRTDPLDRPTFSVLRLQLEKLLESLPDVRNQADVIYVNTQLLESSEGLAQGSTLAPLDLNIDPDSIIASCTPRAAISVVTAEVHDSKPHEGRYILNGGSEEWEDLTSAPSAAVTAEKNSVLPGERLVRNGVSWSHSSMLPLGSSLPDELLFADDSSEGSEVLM
Kind of assay: TR-FRET kinase activity assay, MERTK. It is filed as biochemical. The conditions noted are these: for IC50: TR-FRET activity assay, ATP at Km, 60 minutes, read-out: Mer IC50; for Mer/Flt3 ratio (FLT3 IC50/Mer IC50): ratio calculated as FLT3 IC50/Mer IC50. The gist of the method: (§1)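 Enzyme, fluorescent-labeled peptide substrate and compound were mixed in 50 mM HEPES pH 7.5, 10 mM MgCl2, 1 mM EGTA, 0.01% Brij 35, 1 mM DTT at RT; ATP at each enzyme's Km started the reaction. After 60 min, EDTA quench and Eu-anti-phosphotyrosine-site antibody (30 min, dark); TR-FRET read, IC50 derived.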

In a further assay the target is T2, AXL (Homo sapiens, UniProt P30530).
T2 sequence (P30530 26-894): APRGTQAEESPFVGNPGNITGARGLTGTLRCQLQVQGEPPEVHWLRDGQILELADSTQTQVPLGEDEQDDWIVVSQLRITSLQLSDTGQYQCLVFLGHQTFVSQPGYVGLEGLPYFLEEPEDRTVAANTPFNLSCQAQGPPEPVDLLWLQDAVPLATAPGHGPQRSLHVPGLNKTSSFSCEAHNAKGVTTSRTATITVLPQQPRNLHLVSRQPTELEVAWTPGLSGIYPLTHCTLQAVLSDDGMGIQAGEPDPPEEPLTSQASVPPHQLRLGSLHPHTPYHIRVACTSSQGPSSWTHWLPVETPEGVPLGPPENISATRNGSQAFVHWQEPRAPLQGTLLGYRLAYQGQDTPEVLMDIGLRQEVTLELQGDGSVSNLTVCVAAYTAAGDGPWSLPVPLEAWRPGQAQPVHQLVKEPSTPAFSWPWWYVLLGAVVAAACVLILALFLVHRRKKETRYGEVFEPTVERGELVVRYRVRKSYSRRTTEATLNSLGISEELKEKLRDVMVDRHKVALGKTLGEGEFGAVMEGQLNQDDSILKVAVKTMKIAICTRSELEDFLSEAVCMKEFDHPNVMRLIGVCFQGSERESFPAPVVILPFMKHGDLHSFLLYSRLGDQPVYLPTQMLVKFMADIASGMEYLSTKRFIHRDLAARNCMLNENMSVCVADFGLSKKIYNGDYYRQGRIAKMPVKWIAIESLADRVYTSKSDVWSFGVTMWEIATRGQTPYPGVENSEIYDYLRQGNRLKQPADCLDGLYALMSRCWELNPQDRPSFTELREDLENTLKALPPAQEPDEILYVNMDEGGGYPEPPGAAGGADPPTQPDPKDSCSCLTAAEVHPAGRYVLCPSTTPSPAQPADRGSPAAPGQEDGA
The assay is described as follows: TR-FRET kinase activity assay, AXL. It is filed as biochemical. The conditions noted are these: ATP at Km, 60 minutes. The gist of the method: as §1

For `CC(=O)N1[C@@H]2CC[C@H]1C[C@H](Oc1ncc([C@H]3CC[C@H](O)CC3)c3nc(N[C@@H](C)CC(F)(F)F)ncc13)C2` [Compound 436], the IC50 on MERTK and against AXL was not above 100 nM in each case. Besides, the “Mer/Flt3 ratio (FLT3 IC50/Mer IC50)” value at MERTK was “+++ (a ratio of >100)”.
As to `C[C@@H](CC(F)(F)F)Nc1ncc2c(O[C@@H]3C[C@H]4CC[C@@H](C3)N4C3COC3)ncc([C@H]3CC[C@H](O)CC3)c2n1` [Compound 437], on MERTK, the IC50 was not above 100 nM and the “Mer/Flt3 ratio (FLT3 IC50/Mer IC50)” value is “+++ (a ratio of >100)”. The compound further displayed a half-maximal inhibitory concentration (IC50) on AXL not above 100 nM.
